# System: HEK293-STF3A cells
# Assay: STF3A assay (luciferase reporter)
# Type: cell-based
# Conditions: Homo sapiens, 24 h, 1 day of treatment
# Protocol: HEK293-STF cell line was modified from Human embryonic kidney cell line HEK293 transfected with the STF reporter. HEK293-STF3A cell line was further modified from HEK293-STF cell line to express Wnt3A. This cell line was used to identify compounds that regulate either early or late signalling components of the Wnt pathway. L-Wnt3A (ATCC, #CRL-2647) cell line was used for providing Wnt3A conditioned media. The three cell lines were grown in DMEM (Dulbecco's Modified Eagle Medium) with 10% FBS (fetal bovine serum) incubated in 37° C. with 5% CO2. 2×10^4 HEK293-STF3A cells in 75 μl culture media were seeded in each well of white 96 well plates (Greiner #655098) and incubated overnight at 37° C. 25 μl serially diluted compound was added to the cells to give final concentration of 50 μM to 1.5 nM. After 1 day of treatment, 100 μl of Steady-Glo® Luciferase Assay reagent (#E2520, Promega) was added to each well and incubated for 10 minutes at room temperature. Luminescence was measured using Tecan Safire2® plate reader.
row,Structure (SMILES),IC50 [nM]
1,"C[C@@H]1CNCCN1c1ccc(NC(=O)Cn2cnc3c2c(=O)n(C)c(=O)n3C)cc1 [Compound 44, (R)-2-(1,3-dimethyl-2,6-dioxo-2,3-dihydro-1H-purin-7(6H)-yl)-N-(4-(2-methylpiperazin-1-yl)phenyl)acetamide]",> 10000
2,"Cn1c(=O)c2c(ncn2CC(=O)Nc2ccc(N3CCN(C(=O)c4ccccc4)CC3)cn2)n(C)c1=O [Compound 45, N-(5-(4-benzoylpiperazin-1-yl)pyridin-2-yl)-2-(1,3-dimethyl-2,6-dioxo-2,3-dihydro-1H-purin-7(6H)-yl)acetamide]",< 100
3,"C[C@H]1CN(C(=O)c2ccccc2)CCN1c1ccc(NC(=O)Cn2cnc3c2c(=O)n(C)c(=O)n3C)cc1 [Compound 46, (S)—N-(4-(4-benzoyl-2-methylpiperazin-1-yl)phenyl)-2-(1,3-dimethyl-2,6-dioxo-2,3-dihydro-1H-purin-7(6H)-yl)acetamide]",< 1000
4,"Cn1c(=O)c2c(ncn2CC(=O)Nc2ccc(N3CCN(C(=O)CC(C)(C)C)CC3)cn2)n(C)c1=O [Compound 47, 2-(1,3-dimethyl-2,6-dioxo-2,3-dihydro-1H-purin-7(6H)-yl)-N-(5-(4-(3,3-dimethylbutanoyl)piperazin-1-yl)pyridin-2-yl)acetamide]",< 1000
5,CC(=O)N1CCN(c2ccc(NC(=O)Cn3cnc4c3c(=O)n(C)c(=O)n4C)nc2)CC1 [Compound 48],< 1000
6,"Cn1c(=O)c2c(ncn2CC(=O)Nc2ccc(N3CCN(C(=O)c4ccc(Cl)cc4)CC3)cn2)n(C)c1=O [Compound 49, N-(5-(4-(4-chlorobenzoyl)piperazin-1-yl)pyridin-2-yl)-2-(1,3-dimethyl-2,6-dioxo-2,3-dihydro-1H-purin-7(6H)-yl)acetamide]",< 1000
7,"Cn1c(=O)c2c(ncn2CC(=O)Nc2ccc(N3CCN(C(=O)c4cccs4)CC3)cn2)n(C)c1=O [Compound 50, 2-(1,3-dimethyl-2,6-dioxo-2,3-dihydro-1H-purin-7(6H)-yl)-N-(5-(4-(thiophene-2-carbonyl)piperazin-1-yl)pyridin-2-yl)acetamide]",< 1000
8,"Cn1c(=O)c2c(ncn2CC(=O)Nc2ccc(N3CCN(C(=O)c4cccc(F)c4)CC3)cn2)n(C)c1=O [Compound 51, 2-(1,3-dimethyl-2,6-dioxo-2,3-dihydro-1H-purin-7(6H)-yl)-N-(5-(4-(3-fluorobenzoyl)piperazin-1-yl)pyridin-2-yl)acetamide]",< 1000
9,"Cn1c(=O)c2c(ncn2CC(=O)Nc2ccc(N3CCN(C(=O)c4ccc(F)cc4)CC3)cn2)n(C)c1=O [Compound 52, 2-(1,3-dimethyl-2,6-dioxo-2,3-dihydro-1H-purin-7(6H)-yl)-N-(5-(4-(4-fluorobenzoyl)piperazin-1-yl)pyridin-2-yl)acetamide]",< 1000
10,"Cn1c(=O)c2c(ncn2CC(=O)Nc2ccc(N3CCN(Cc4ccccc4)CC3)cn2)n(C)c1=O [Compound 53, N-(5-(4-benzylpiperazin-1-yl)pyridin-2-yl)-2-(1,3-dimethyl-2,6-dioxo-2,3-dihydro-1H-purin-7(6H)-yl)acetamide]",< 100
11,"Cn1c(=O)c2c(ncn2CC(=O)Nc2ccc(N3CCN(Cc4cc(F)cc(F)c4)CC3)cn2)n(C)c1=O [Compound 54, N-(5-(4-(3,5-difluorobenzyl)piperazin-1-yl)pyridin-2-yl)-2-(1,3-dimethyl-2,6-dioxo-2,3-dihydro-1H-purin-7(6H)-yl)acetamide]",< 100
12,"Cn1c(=O)c2c(ncn2CC(=O)Nc2ccc(N3CCN(Cc4ccccc4F)CC3)cn2)n(C)c1=O [Compound 55, 2-(1,3-dimethyl-2,6-dioxo-2,3-dihydro-1H-purin-7(6H)-yl)-N-(5-(4-(2-fluorobenzyl)piperazin-1-yl)pyridin-2-yl)acetamide]",< 5000
13,"Cn1c(=O)c2c(ncn2CC(=O)Nc2ccc(N3CCN(Cc4ccc(F)cc4)CC3)cn2)n(C)c1=O [Compound 56, 2-(1,3-dimethyl-2,6-dioxo-2,3-dihydro-1H-purin-7(6H)-yl)-N-(5-(4-(4-fluorobenzyl)piperazin-1-yl)pyridin-2-yl)acetamide]",< 1000
14,"Cn1c(=O)c2c(ncn2CC(=O)Nc2ccc(N3CCN(Cc4cccc(F)c4)CC3)cn2)n(C)c1=O [Compound 57, 2-(1,3-dimethyl-2,6-dioxo-2,3-dihydro-1H-purin-7(6H)-yl)-N-(5-(4-(3-fluorobenzyl)piperazin-1-yl)pyridin-2-yl)acetamide]",< 100
15,"C[C@H](C(=O)Nc1ccc(-c2ccsc2)cc1)n1cnc2c1c(=O)n(C)c(=O)n2C [Compound 58, (R)-2-(1,3-dimethyl-2,6-dioxo-2,3-dihydro-1H-purin-7(6H)-yl)-N-(4-(thiophen-3-yl)phenyl)propanamide]",> 10000
16,"C[C@@H](C(=O)Nc1ccc(-c2ccsc2)cc1)n1cnc2c1c(=O)n(C)c(=O)n2C [Compound 59, (S)-2-(1,3-dimethyl-2,6-dioxo-2,3-dihydro-1H-purin-7(6H)-yl)-N-(4-(thiophen-3-yl)phenyl)propanamide]",< 100
17,"Cn1c(=O)c2c(ncn2C(C)(C)C(=O)Nc2ccc(-c3ccsc3)cc2)n(C)c1=O [Compound 60, 2-(1,3-dimethyl-2,6-dioxo-2,3-dihydro-1H-purin-7(6H)-yl)-2-methyl-N-(4-(thiophen-3-yl)phenyl)propanamide]",< 1000
18,"CC(C(=O)Nc1ccc(-c2ccsc2)cc1)n1cnc2c1c(=O)n(C)c(=O)n2C (stereo not drawn) [Compound 61, 2-(1,3-dimethyl-2,6-dioxo-2,3-dihydro-1H-purin-7(6H)-yl)-N-(4-(thiophen-3-yl)phenyl)propanamide]",< 100
19,"CC(C(=O)Nc1ccc(-c2ccccc2)cc1)n1cnc2c1c(=O)n(C)c(=O)n2C (stereo not drawn) [Compound 62, N-(biphenyl-4-yl)-2-(1,3-dimethyl-2,6-dioxo-2,3-dihydro-1H-purin-7(6H)-yl)propanamide]",< 100
20,"CC(C(=O)Nc1ccc(N2CCN(Cc3cc(F)cc(F)c3)CC2)cc1)n1cnc2c1c(=O)n(C)c(=O)n2C (stereo not drawn) [Compound 63, N-(4-(4-(3,5-difluorobenzyl)piperazin-1-yl)phenyl)-2-(1,3-dimethyl-2,6-dioxo-2,3-dihydro-1H-purin-7(6H)-yl)propanamide]",< 1000
21,"CCC(C(=O)Nc1ccc(-c2ccsc2)cc1)n1cnc2c1c(=O)n(C)c(=O)n2C (stereo not drawn) [Compound 64, 2-(1,3-dimethyl-2,6-dioxo-2,3-dihydro-1H-purin-7(6H)-yl)-N-(4-(thiophen-3-yl)phenyl)butanamide]",< 100
22,"CC(C)C(C(=O)Nc1ccc(-c2ccccc2)cc1)n1cnc2c1c(=O)n(C)c(=O)n2C (stereo not drawn) [Compound 65, N-(biphenyl-4-yl)-2-(1,3-dimethyl-2,6-dioxo-2,3-dihydro-1H-purin-7(6H)-yl)-3-methylbutanamide]",> 10000
23,"Cc1nc2c(c(=O)n(C)c(=O)n2C)n1CC(=O)Nc1ccc(-c2ccsc2)cc1 [Compound 66, N-(4-(thiophen-3-yl)phenyl)-2-(1,3,8-trimethyl-2,6-dioxo-2,3-dihydro-1H-purin-7(6H)-yl)acetamide]",< 100
24,"Cc1nc2c(c(=O)n(C)c(=O)n2C)n1[C@@H](C)C(=O)Nc1ccc(-c2nccs2)cc1 [Compound 67, (S)—N-(4-(thiazol-2-yl)phenyl)-2-(1,3,8-trimethyl-2,6-dioxo-2,3-dihydro-1H-purin-7(6H)-yl)propanamide]",< 1000

# — patent publication US12559495B2 (Agency for Science, Technology and Research, priority 2013, dated 2026)
